Marks after values point to notes of the source that are not given here.
What was measured:
Assay type in all cases: in vivo
C57BL/KsBom-db/db mice [1] = assay: Blood glucose profile of db/db mice during daily treatment (antihyperglycemic activity); settings: for Comparative antihyperglycemic activity: Average Fall: day given in brackets, in %
Method: (§1) C57BL/KsBom-db/db mice (12-18 weeks old), weighing around 35+g bred in the animal house of CDRI, Lucknow, were used in the present experiments. The mice were housed in groups of 3 to 5 (same sex) in a room controlled for temperature (23±2.0 ° C.) and 12/12 hours light/dark cycle (lights on at 6.00 am). Body weight of each animal was measured daily from day 1 to day 10 of the experiment. All animals had free access to fresh water and normal pellet diet except on the day of the postprandial protocol (day 6) and during the overnight fast before the OGTT on day 10. The animals always had access to water during experimental periods. Blood glucose was checked every morning up till day 10. On day 10 an oral glucose tolerance test (OGTT) was performed after an overnight fasting. Blood glucose was measured at −30.0 min and test compounds were administered. The blood glucose was again measured at 0 min just post treatment and at this juncture glucose solution was given at a dose of 3 gm/kg to all the groups including the vehicle treated group. The blood glucose levels were checked at 30 min, 60 min, 90 min and 120 min post glucose administration. The data was analyzed for its significance on Prism software.

C57BL/KsBom-db/db mice [2] = assay: Oral glucose tolerance test (OGTT) on day 10 in db/db mice; settings: for Blood glucose profile, 0 min post glucose load / Blood glucose % change compared to control, 0 min post glucose load: OGTT day 10, 0 min; for Blood glucose profile, 30 min post glucose load / Blood glucose % change compared to control, 30 min post glucose load: OGTT day 10, 30 min; for Blood glucose profile, 60 min post glucose load / Blood glucose % change compared to control, 60 min post glucose load: OGTT day 10, 60 min; for Blood glucose profile, 90 min post glucose load / Blood glucose % change compared to control, 90 min post glucose load: OGTT day 10, 90 min; for Blood glucose profile, 120 min post glucose load / Blood glucose % change compared to control, 120 min post glucose load: OGTT day 10, 120 min; for Blood glucose profile, −30 min post glucose load / Blood glucose % change compared to control, −30 min post glucose load: OGTT day 10, −30 min; for Comparative antihyperglycemic activity: Day 10 (OGTT): in % (unit assumed)
Method: as §1

C57BL/KsBom-db/db mice [3] = assay: Serum lipid profile of treated db/db mice (antidyslipidemic activity); settings: 25 mg/kg
Method: as §1

## CC(C)(C)NC[C@H](O)COc1ccc2c(=O)cc(-c3cc(OCc4ccccc4)cc(OCc4ccccc4)c3)oc2c1 [S-002-853 (S), (S)-(+)-7-(3-tert-Butylamino-2-hydroxypropoxy)-3′,5′-dibenzyloxyflavone]
C57BL/KsBom-db/db mice [1]; 25 mg/kg, day 5
  Blood glucose, day 5 post treatment: 8.80 ± 3.84 mM
C57BL/KsBom-db/db mice [1]; 25 mg/kg, day 5, vs sham
  Blood glucose % change compared to control, day 5: −55.6%
C57BL/KsBom-db/db mice [1]; 25 mg/kg, day 6
  Blood glucose, day 6 post treatment: 7.60 ± 3.46 mM
C57BL/KsBom-db/db mice [1]; 25 mg/kg, day 6, vs sham
  Blood glucose % change compared to control, day 6: −61.1%
C57BL/KsBom-db/db mice [1]; 25 mg/kg, day 6 of treatment
  maximum percentage fall in blood glucose: around 61.1%
C57BL/KsBom-db/db mice [1]; 25 mg/kg, day 7
  Blood glucose, day 7 post treatment: 10.6 ± 2.20 mM
C57BL/KsBom-db/db mice [1]; 25 mg/kg, day 7, vs sham
  Blood glucose % change compared to control, day 7: −52.2%
C57BL/KsBom-db/db mice [1]; 25 mg/kg, day 8
  Blood glucose, day 8 post treatment: 8.30 ± 1.13 mM
C57BL/KsBom-db/db mice [1]; 25 mg/kg, day 8, vs sham
  Blood glucose % change compared to control, day 8: −60.0%
C57BL/KsBom-db/db mice [1]; 25 mg/kg, day 9
  Blood glucose, day 9 post treatment: 7.90 ± 1.30 mM
C57BL/KsBom-db/db mice [1]; 25 mg/kg, day 9, vs sham
  Blood glucose % change compared to control, day 9: −58.5%
C57BL/KsBom-db/db mice [1]; 25 mg/kg, listed as S-isomer
  antihyperglycemic and antidyslipidemic/antihyperlipidemic activity (in words): marked antihyperglycemic and antihyperlipidemic effect compared to racemic mixture
C57BL/KsBom-db/db mice [1]; test dose 10 mg/kg
  Comparative antihyperglycemic activity: Average Fall: 42.2*
C57BL/KsBom-db/db mice [1]; test dose 25 mg/kg
  Comparative antihyperglycemic activity: Average Fall: 61.1**
C57BL/KsBom-db/db mice [2]; 10 mg/kg
  Blood glucose profile, 0 min post glucose load: 9.23 ± 3.10 mM
  Blood glucose profile, 30 min post glucose load: 19.3 ± 5.52 mM
  Blood glucose profile, 60 min post glucose load: 18.4 ± 5.39 mM
  Blood glucose profile, 90 min post glucose load: 12.1 ± 3.81 mM
  Blood glucose profile, 120 min post glucose load: 9.23 ± 3.10 mM
  Blood glucose profile, −30 min post glucose load: 8.37 ± 2.98 mM
C57BL/KsBom-db/db mice [2]; 10 mg/kg, vs sham
  Blood glucose % change compared to control, 0 min post glucose load: −25.7%
  Blood glucose % change compared to control, 30 min post glucose load: −32.8%
  Blood glucose % change compared to control, 60 min post glucose load: −27.2%
  Blood glucose % change compared to control, 90 min post glucose load: −26.9%
  Blood glucose % change compared to control, 120 min post glucose load: −11.7%
  Blood glucose % change compared to control, −30 min post glucose load: −23.9%
C57BL/KsBom-db/db mice [2]; 10 mg/kg, not statistically significant
  effect of 10 days treatment on glucose tolerance: around 27.6%
C57BL/KsBom-db/db mice [2]; 25 mg/kg
  Blood glucose profile, 0 min post glucose load: 4.81 ± 0.35 mM
  Blood glucose profile, 30 min post glucose load: 17.8 ± 1.24 mM
  Blood glucose profile, 60 min post glucose load: 16.3 ± 1.82 mM
  Blood glucose profile, 90 min post glucose load: 13.0 ± 1.66 mM
  Blood glucose profile, 120 min post glucose load: 8.83 ± 0.72 mM
  Blood glucose profile, −30 min post glucose load: 4.57 ± 0.30 mM
C57BL/KsBom-db/db mice [2]; 25 mg/kg, vs sham
  Blood glucose % change compared to control, 0 min post glucose load: −41.8%
  Blood glucose % change compared to control, 30 min post glucose load: −38.6%
  Blood glucose % change compared to control, 60 min post glucose load: −48.3%
  Blood glucose % change compared to control, 90 min post glucose load: −45.5%
  Blood glucose % change compared to control, 120 min post glucose load: −58.2%
  Blood glucose % change compared to control, −30 min post glucose load: −43.5%
  effect of 10 days treatment on glucose tolerance (overall improvement in OGTT): around 45.3%
C57BL/KsBom-db/db mice [2]; test dose 10 mg/kg
  Comparative antihyperglycemic activity: Day 10 (OGTT): 27.6*
C57BL/KsBom-db/db mice [2]; test dose 25 mg/kg
  Comparative antihyperglycemic activity: Day 10 (OGTT): 45.3**
C57BL/KsBom-db/db mice [3]
  Serum lipid profile: Cholesterol: 185 ± 51.4 mg/dL
  Serum lipid profile: HDL-Chol: 49.5 ± 8.36 mg/dL
  Serum lipid profile: Triglycerides: 115 ± 2.82 mg/dL
C57BL/KsBom-db/db mice [3]; vs sham
  Cholesterol % change compared to control: −21.8%
  HDL-Chol % change compared to control: +33.2%
  Triglycerides % change compared to control: −14.5%

— patent US20110077294A1, “R-(-) / S-(+)-7-[3-N SUBSTITUTED AMINO-2 HYDROXYPROPOXY] FLAVONES” (priority 2006, published 2011)
